The subject of experiment [1] is IL-2 (Interleukin-2). As to the kind of experiment: PHA-stimulated peripheral blood lymphocyte cytokine release: IL-2. The class given is cell-based. The note with it: Homo sapiens, 48 h, read-out: IL-2 % inh. The source says: The ability of various amines to affect the inflammatory responses was illustrated by its ability to reduce the production of cytokines by human lymphocytes stimulated with the T-cell receptor (TCR) activating agent phytohaemagglutinin (PHA) in the following assay.
Human leukocytes were collected from a healthy adult […] via leukopheresis, and adjusted to a density Of 1×10^6 cells/mL in serum free lymphocyte growth medium (ExVivo-15, Biowhittaker, Walkersville, Md.). PBLs were stimulated with 10 μg/mL PHA in the presence or absence of test samples following published methods (Hamamoto Y., et al. Exp Dermatol 2:231-235, 1993). The following compounds were evaluated N,N,N′,N′-Tetrakis(2-hydroxypropyl)ethylenediamine (THPED, available from BASF under the tradename “Quadrol” or “Neutrol”), N,N,N,N-Tetramethylethylenediamine (TEMED, available from Pfaltz & Bauer Chemicals (Waterbury, Conn.)), and Diethylenetriamine (available from Sigma-Aldrich) Following a 48 hour incubation at 37° C. with 5% CO2, the supernatant was removed and evaluated for cytokine content using commercially available multiplex cytokine detection kit.

Experiment [2] has as its system B16 cells. The experiment can be described thus: Induction of pigmentation in vitro, DOPA staining. The class given is cell-based, murine. The note with it: pH 7.2, 48 hours. The procedure: THPED was tested for its effect on pigmentation, using melanocytes, DOPA staining and computerized image analysis. THPED was obtained from BASF (Florham Park, N.J.). THPED was dissolved in culture medium and pH was adjusted to neutral (pH 7.2). THPED was assayed at concentrations ranging from 0.05-0.01%.
B16 cells (a murine melanoma cell line) were obtained from American Type Culture Collection (Manassas, Va.). Cells were cultured in Dulbecco's Modified Eagle Medium (DMEM) containing 10% fetal bovine serum (FBS), 4.5 mg/ml glucose, 2 mM L-glutamine, sodium pyruvate, without phenol red (Invitrogen, Carlsbad, Calif.). B16 cells were plated on 12 well tissue culture plates (Corning Costar, San Diego, Calif.), at 40,000 cells per well in the above culture media. Cells were allowed to grow overnight and then treated with various concentrations of THPED at pH 7.2 for total 48 hours. Fresh media containing the experimental treatments were changed once daily.
At the end of the treatment, the cells were washed for 5 minutes, twice, in phosphate-buffered saline (PBS, from Life Technologies, Gaithersburg, Md.), then briefly fixed in 10% buffered formalin (from Sigma St. Louis, Mo.) for 10 minutes, washed three times with PBS and stained with 0.1% L-3,4-Dihydroxyphenylalanine (DOPA, from Sigma, St. Louis, Mo.) in PBS for 2-3 hours at 37° C., followed by three PBS washes. DOPA is a substrate for tyrosinase; therefore an increase in staining represents increased tyrosinase activity and pigment production. Images of DOPA-stained cells were taken using a Leica DMIL microscope (Bannockburn, Ill.) and an OPTRONICS DEI-750 digital camera (Goleta, Calif.). All images were obtained and analyzed with Image Pro Plus 4.0 software (Media Cybernetics, Silver Spring, Md.).
The pigment change was evaluated using the scale defined in Table XII.

For experiment [3], the system named is tyrosinase. The experiment can be described thus: Tyrosinase protein levels in B16 cells (Western blot, normalized to β-Actin). The note with it: pH 7.2, 48 hours, PBS treated control = 1. The class given is cell-based, murine. The procedure: THPED was also tested for its ability to induce tyrosinase protein levels in B16 cells. B16 cells were treated with THPED at different concentrations at pH 7.2 for 48 hours and cells were then lysed in 250 μl of PBS containing 1% Triton X-100. B16 cell lysates containing 3.7 μg of protein (for tyrosinase protein analysis) and 1.2 μg of protein (for β-Actin protein analysis) were electrophoresed on 4-20% Tris-Glycine SDS PAGE minigels (Invitrogen, Carlsbad, Calif.), transferred onto PVDF membrane (Bio Rad, Hercules, Calif.), and probed with antibodies for Tyrosinase (1:200 in PBS+0.2% Tween 20+5% BSA, obtained from Santa Cruz Biotechnology, Inc., Santa Cruz, Calif.) and β-Actin (1:2000 in PBS+0.2% Tween 20+5% BSA, obtained from Sigma, St. Louis, Mo.). Protein expression of tyrosinase and β-Actin were analyzed using ECL reagent and Hyperfilm ECL obtained from Amersham (Piscataway, N.J.). The film was developed using a Konica SRX-101A Processor (East Orange, N.J.).
Tyrosinase protein level in untreated B16 cells was normalized to 1.
For orientation: Immunoblotting shows a protein as a band on a membrane.

The subject of experiment [4] is human facial skin biopsy punches rich in sebaceous glands. The experiment can be described thus: Sebum lipid accumulation in facial skin biopsy punches (C14-acetate, HPTLC). The class given is cell-based. The note with it: 25 um; two experiments, two donors. An excerpt:
The ability of THPED to selectively affect the content of squalene present in human sebum without affecting other components of sebum was illustrated by its ability to selectively reduce the content of squalene present in human skin using the following assay.
The Methods used are as described previously by Pappas et al. (J Invest Dermatol. 2002 January; 118(1):164-171). In summary, samples of facial skin (otherwise to be discarded) were obtained from female patients 45-65 years of age. The subjects were healthy females without a history of retinoid or laser treatment or chemotherapy. The specimens were obtained from facial lift surgery within 5 hours from the end of the surgery. Two mm biopsy punches were taken from tissues rich in sebaceous glands and cultured in serum free medium. […]
The lipid components extracted from the explanted glands were analyzed by chromatographic separation on 10×20 cm Whatman HPTLC Silica G plates that had been previously charged with chloroform, heated in a vacuum oven at 105° C. for 30 min and cooled to room temperature in a dessicator. […]

SMILES strings stand for the structures.

In the case of `CC(O)CN(CCN(CC(C)O)CC(C)O)CC(C)O` (stereo not shown) [THPED, N,N,N′,N′-Tetrakis(2-hydroxypropyl)ethylenediamine], the inhibition at 10 µg/mL in experiment [1] stood at 10.6%. Moreover, the inhibition at 100 µg/mL in experiment [1] worked out at 41.3%. Moreover, the figures for the Pigmentation score in experiment [2] (0.01% (w/v)), in experiment [2] (0.025% (w/v)) and in experiment [2] (0.05% (w/v)) were 1, 2 and 4, respectively. Further, the “Relative increase in tyrosinase protein” value is on record as 3 fold in experiment [3] (0.01%), 25 fold in experiment [3] (0.025%) and 36 fold in experiment [3] (0.05%). Also, the “Inhibition of Squalene accumulation, (Percent of Vehicle Treated)” value in experiment [4] is on record as 44.0%. The “Inhibition of Triglyceride accumulation, (Percent of Vehicle Treated)” value in experiment [4] is 2.65%.

For the origin of these results see patent US8278359B2, “Compositions containing amines and use thereof to treat acne or reduce the appearance of oil or pores on the skin” (Johnson & Johnson Consumer Companies, Inc., priority 2005, dated 2012).
